Test results taken from US5789531A, “Peptide-based inhibitors of HIV replication” (Allex Biopharmaceuticals, Inc., priority 1995, dated 1998).
Where “and” joins values, the source holds several entries; their conditions need not be identical. Identical values can stand only once. Like-named read-outs stand apart in the source and are kept apart here.

Legend:
[1] = system: truncated functional form of TAR RNA (SEQ ID NO:13); test: RNA gel mobility shift TAR-binding assay; set-up: species or system HIV; conditions: relative to tat (1-86) and the oligopeptide representing the tat basic domain
Protocol: This assay generally involves the incubation of a selected oligopeptide with gel-purified, radio-labelled TAR RNA, or tat-binding fragment of TAR RNA, that has been produced either by direct synthesis or through transcription of a corresponding DNA template. Samples are loaded onto non-denaturing polyacrylamide gel and subjected to electrophoresis, and then migration of labelled RNA through the gel is visualized on gel-exposed, X-ray film. Oligopeptides which bind TAR are identified in this assay by their characteristic, retarded migration on the gel, relative to TAR RNA to which no oligopeptide has bound. In this mobility shift assay, oligopeptides having an "enhanced" affinity for binding TAR RNA will resolve on the gel as bands which, in addition to displaying the retarded migration pattern characteristic of TAR-binding oligopeptides, will also appear with greater intensity and/or size than a band containing TAR RNA bound to tat (1-86).
(§1) TAR-binding affinity of the oligopeptides relative to HIV tat(1-86) and relative to tat fragments representing the tat basic domain, was evaluated by RNA gel mobility shift assay using as ligand a truncated functional form of TAR RNA having the sequence (SEQ ID NO:13) shown below.
Synthesis of the TAR fragment and its variant analogue was accomplished as described by Roy et al. in Genes and Development, 1990, 4:1365. […]

HIV (strain NL4-3) = assay type: cell-based; conditions: for PH Titers: HuT78 cells, 5 uM pretreatment, 10 uM after infection
From the text: Controls used water in place of peptide.

HuT78 cells = test: Host cell replication in presence of peptide
[2] = system: variant of TAR (SEQ ID NO:14) which does not bind tat; test: RNA gel mobility shift assay with non-functional TAR variant (specificity); assay type: binding, HIV; conditions: functional TAR fragment vs non-functional TAR variant
Protocol: as §1
Synthesis of the TAR fragment and its variant analogue was accomplished as described by Roy et al. in Genes and Development, 1990, 4:1365. The TAR-binding assay was also performed in the manner reported by Roy et al, supra, which is incorporated herein by reference.

yeast tRNA = test: TAR binding compared with yeast tRNA binding
tat = conditions: Green et al, Cell 1989, 58:215; cited from earlier work

CC(=O)N[C@H](CCCNC(=N)N)C(=O)N[C@H](CCCNC(=N)N)C(=O)N[C@H](CCCNC(=N)N)C(=O)N[C@H](CCCNC(=N)N)C(=O)N[C@H](CCCNC(=N)N)C(=O)N[C@H](CCCNC(=N)N)C(=O)N[C@H](CCCNC(=N)N)C(=O)N[C@H](CCCNC(=N)N)C(=O)N[C@H](CCCNC(=N)N)C(N)=O [4C, acetyl-[D-Arg]9 --NH2]
TAR-binding affinity [1]: TAR-binding affinity comparable to the basic domain of wild type tat
PH Titers (HIV (strain NL4-3); 7 Day Pretreatment, Day 4 after infection, listed as 4C1): 168.4 pg/mL and 98.08 pg/mL
PH Titers (HIV (strain NL4-3); 7 Day Pretreatment, Day 4 after infection, listed as 4C2): 131.5 pg/mL and 93.76 pg/mL
PH Titers (HIV (strain NL4-3); 14 Day Pretreatment, Day 4 after infection, listed as 4C1): 152.5 pg/mL
PH Titers (HIV (strain NL4-3); 14 Day Pretreatment, Day 4 after infection, listed as 4C2): 129.0 pg/mL
PH Titers (HIV (strain NL4-3); 14 Day Pretreatment, Day 7 after infection, listed as 4C1): 175.1 pg/mL
PH Titers (HIV (strain NL4-3); 14 Day Pretreatment, Day 7 after infection, listed as 4C2): 133.6 pg/mL
inhibition of viral replication, as measured by p24 assay (HIV (strain NL4-3); at the concentration tested (5 uM), FIG. 1): ≥ 95%
inhibition of host cell replication (HuT78 cells; 5 uM): no apparent inhibition of host cell replication
effect on cell replication (HuT78 cells; 100 uM, separate experiments): no significant detrimental effect on cell replication
specificity for binding to the functional TAR fragment relative to the TAR variant [2]: specificity comparable to the wild type basic domain
specificity of TAR binding compared with yeast tRNA binding (yeast tRNA): specificity of binding has also been confirmed

CC(=O)N[C@H](CCCNC(=N)N)C(=O)N[C@H](CCCCN)C(=O)N[C@H](CCCCN)C(=O)N[C@H](CCCNC(=N)N)C(=O)N[C@H](CCCNC(=N)N)C(=O)N[C@H](CCC(N)=O)C(=O)N[C@H](CCCNC(=N)N)C(=O)N[C@H](CCCNC(=N)N)C(=O)N[C@H](CCCNC(=N)N)C(N)=O [4G, acetyl-[D-(Arg--Lys--Lys--Arg--Arg--Gln--Arg--Arg--Arg)]--NH2]
HIV inhibition / resistance to viral infection (HIV (strain NL4-3); 5 uM concentration): positive effects on HIV inhibition
PH Titers (HIV (strain NL4-3); 7 Day Pretreatment, Day 4 after infection, listed as 4G1): 312.1 pg/mL
PH Titers (HIV (strain NL4-3); 7 Day Pretreatment, Day 4 after infection, listed as 4G2): 336.1 pg/mL
PH Titers (HIV (strain NL4-3); 7 Day Pretreatment, Day 7 after infection, listed as 4G1): 371.5 pg/mL
PH Titers (HIV (strain NL4-3); 7 Day Pretreatment, Day 7 after infection, listed as 4G2): 446.8 pg/mL
PH Titers (HIV (strain NL4-3); 24 Hrs Pretreatment, Day 4 after infection, listed as 4G1): 340.9 pg/mL
PH Titers (HIV (strain NL4-3); 24 Hrs Pretreatment, Day 4 after infection, listed as 4G2): 356.9 pg/mL
PH Titers (HIV (strain NL4-3); 24 Hrs Pretreatment, Day 7 after infection, listed as 4G1): 721.1 pg/mL
PH Titers (HIV (strain NL4-3); 24 Hrs Pretreatment, Day 7 after infection, listed as 4G2): 851.8 pg/mL

Arg--Lys--Lys--Arg--Arg--Gln--Arg--Arg--Arg
tat antagonist activity (tat): Weak tat antagonist activity
